In ChEMBL document CHEMBL1159242, “Studies on the inhibitory effects of caffeoylquinic acids on monocyte migration and superoxide ion production” (J Nat Prod, 1995) one finds Activity data, which are given here for 3 compounds.

Active and inactive are the calls of the source. The rule behind the calls is not given here.

A short description of data set [1]: Cytotoxicity against human monocytes measured by LDH activity. It is filed as cell-based. The conditions noted are these: monocyte.
The subject of data set [2] is Monocyte. Kind of data set: Inhibition of healthy human monocyte migration assessed as chemotactic index at 0.001 to 0.00001 pM. It is filed as functional, cell-based.
Data set [3] has as its system Monocyte. The experiment in a line: Inhibition of healthy human monocyte migration assessed as chemotactic index at 0.001 to 0.00001 pM after >45 mins. It is filed as functional, cell-based.
Data set [4] has as its system Monocyte. Kind of data set: Inhibition of healthy human monocyte migration assessed as chemotactic index at 0.01 nM after 45 mins. The format is functional, cell-based.
Data set [5] deals with Monocyte. The experiment in a line: Inhibition of O2- radical production in zymosan-stimulated healthy human monocyte measured after 45 mins at 37 degC. It is filed as functional, cell-based.
The subject of data set [6] is Monocyte. The experiment in a line: Inhibition of O2- radical production in zymosan-stimulated healthy human monocyte measured after 1 hr at 37 degC. The format is functional, cell-based.
Data set [7] has as its system Monocyte. Kind of data set: Inhibition of O2- radical production in zymosan-stimulated healthy human monocyte assessed as increase in H2O production after 1 hr at 37 degC. It is filed as functional, cell-based.
Data set [8] deals with Monocyte. The experiment in a line: Inhibition of O2- radical production in zymosan-stimulated healthy human monocyte assessed as inhibition H2O2 production after 1 hr at 37 degC. It is filed as functional, cell-based.
The subject of data set [9] is Monocyte. Kind of data set: Inhibition of healthy human monocyte migration assessed as chemotactic index at 0.1 pM after 45 mins. The format is functional, cell-based.
Data set [10] relates to Monocyte. Kind of data set: Inhibition of healthy human monocyte migration assessed as chemotactic index at 100 nM after 45 mins. The format is functional, cell-based.

Turning to `O=C(/C=C/c1ccc(O)c(O)c1)O[C@@H]1C[C@](O)(C(=O)O)C[C@@H](OC(=O)/C=C/c2ccc(O)c(O)c2)[C@H]1OC(=O)/C=C/c1ccc(O)c(O)c1`, the Activity entry in data set [1] was “Non-toxic”.

`O=C(/C=C/c1ccc(O)c(O)c1)O[C@@H]1C[C@](O)(C(=O)O)C[C@@H](OC(=O)/C=C/c2ccc(O)c(O)c2)[C@H]1O`: the outcome in the data set on Monocyte [2], in the data set on Monocyte [4], in the data set on Monocyte [5], in the data set on Monocyte [7], with Monocyte [8] and in the data set on Monocyte [9] was Active. Further, the result with Monocyte [3] was inactive. Also, the Activity entry in data set [1] was “Non-toxic”; with Monocyte [6], “Dose-dependent effect”.

As to `O=C(/C=C/c1ccc(O)c(O)c1)O[C@H]1[C@H](O)C[C@](O)(C(=O)O)C[C@H]1OC(=O)/C=C/c1ccc(O)c(O)c1`, the Activity result in [1] was “Non-toxic”; in the data set with Monocyte [6], “Dose-dependent effect”. The outcome in the data set on Monocyte [10] was inactive.
